# Laboratory results as given in US12390440B2, “Immunomodulating trifluoromethyl-aminal azalides” (Zoetis Services LLC, priority 2020, dated 2025).
# Tests used:
# P. multocida 46572 = experiment: In vivo mouse lung infection challenge model (murine efficacy); settings: mouse, in vivo
# Description: The challenge organism was P. multocida 46572. Target challenge concentration was 5×10^2 CFU/mouse. Isolated colonies from overnight growth (37° C. with 5% CO2) on trypticase soy agar (TSA II) blood plates were transferred to room temperature Brain Heart Infusion Broth (BHIB). The broth culture was incubated 3.5-4 hours to approximately mid-log phase of growth, as measured by forward light scatter at 600 nm (OD600, 0.200). The culture was centrifuged to collect the bacterial pellet. The pellet was re-suspended in BHIB and adjusted to provide an approximate concentration of 2.7 log^10 colony forming units (CFU) in 0.04 mL at the highest concentration. The challenge inoculum concentration was confirmed by serial dilutions of the inoculum for CFU enumeration. On Day −5, CD-1 female mice were received. Mice were given standard rodent diet and water ad libitum. On Day 0, bacterial inoculum (0.04 mL) was administered to each mouse (n=36) intranasally. Compounds of the invention were dosed at 20 mg/kg (0.1 mL) in a buffered (˜pH 5.4) propylene glycol, monothioglycerol and water solution by subcutaneous injection. Animals were observed from Days 1-10. The study was terminated on Day 10. In addition, some treatment groups were sampled at 6, 24, and 48 hours post bacterial challenge for RNA sequence analysis of lung tissue.
# The murine efficacy model (P. multocida challenge) was optimized, and the treatment group size was powered to be able to observe statistically significant improvement of survival to expected ranges for immunomodulatory compounds. The experimental design was a randomized complete block design. Mice were individually identified and treatment groups comingled within a cage, with every treatment group equally represented across cages. Mortality was the primary variable. Mortality data was analyzed using a generalized mixed model with fixed effect of treatment and random effect of block. Survival time was also analyzed using the SAS PHREG (survival analysis) procedure to examine whether there were significant differences between treatment groups and the control group. Numerous compounds of the invention and M9 (positive control) were tested in this model at a dose of 20 mg/kg (Table 3). Typical percent survival for no treatment control is in the range of 0-20% based on study to study variation in challenge inoculum and rate of infection. […] Mouse survival for M9 was about 90-100%, further supporting its residual antibacterial properties against the bacterial strain. Harmonized survival accounts for % survival relative to vehicle (“−” control) and M9 (“+” control)) survival data (Table 3).
# BRD = experiment: Separate study, M9 versus saline control: lung lesions and mortality; type: in vivo; settings: 10 mg/kg
# TLR4 = target: T1, TLR4 (Bos taurus, UniProt Q9GL65); experiment: Drug/protein binding partner, SPR: TLR4; parameters: species or system bovine; settings: PBMCs, Trachea
# T1 sequence (Q9GL65 24-841): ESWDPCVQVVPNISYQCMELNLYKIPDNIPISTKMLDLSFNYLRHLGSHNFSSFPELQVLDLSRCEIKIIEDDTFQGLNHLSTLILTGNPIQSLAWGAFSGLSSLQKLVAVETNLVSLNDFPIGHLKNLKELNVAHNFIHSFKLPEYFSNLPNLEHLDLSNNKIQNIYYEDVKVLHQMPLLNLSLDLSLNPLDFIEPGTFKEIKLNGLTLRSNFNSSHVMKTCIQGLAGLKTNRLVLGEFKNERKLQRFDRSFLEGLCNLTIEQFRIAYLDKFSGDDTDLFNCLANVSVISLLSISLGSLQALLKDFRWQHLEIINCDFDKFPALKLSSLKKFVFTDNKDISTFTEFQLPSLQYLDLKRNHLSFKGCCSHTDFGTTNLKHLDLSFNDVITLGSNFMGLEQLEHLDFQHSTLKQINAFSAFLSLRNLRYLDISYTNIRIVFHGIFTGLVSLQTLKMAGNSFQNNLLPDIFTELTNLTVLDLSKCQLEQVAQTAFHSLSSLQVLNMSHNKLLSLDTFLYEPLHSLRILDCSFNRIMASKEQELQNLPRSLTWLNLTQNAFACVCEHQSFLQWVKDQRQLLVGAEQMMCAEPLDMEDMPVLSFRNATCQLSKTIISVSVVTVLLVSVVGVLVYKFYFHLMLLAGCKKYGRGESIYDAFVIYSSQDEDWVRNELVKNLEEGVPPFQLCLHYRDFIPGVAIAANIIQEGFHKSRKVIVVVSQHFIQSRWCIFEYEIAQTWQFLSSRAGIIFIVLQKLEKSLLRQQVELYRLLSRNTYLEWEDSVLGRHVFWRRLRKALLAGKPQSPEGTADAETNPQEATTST
# Description: To further characterize the direct activity of the compounds of the invention, experiments to identify the drug's direct binding host partners(s) were performed with the aim of identifying the potential biological targets. Bovine primary cells (peripheral blood mononuclear cells [PBMCs] and polymorphonuclear cells [PMN/neutrophils]) and tissue (trachea, lung) protein homogenates were mixed with M9 and the macrolide, gamithromicin as a comparator. Tissue interactions were allowed to form using a heterogeneous assembly method (nematic protein organization technique, NPOT; Inoviem Scientific); and traditional western blots to identify native-structure proteins bound to the compound. Mass spectrometry analysis identified eight proteins involved in the interaction with M9 as compared to gamithromycin. The antibacterial macrolide gamithromycin was used as a comparator to differentiate specific binding to M9. These proteins were considered to be either direct binding partners of the drug or closely involved in the drug:target interaction (Table 6).
# In order to add further clarity to binding partner identification, surface plasma resonance (SPR) technology was used. […]
# KD is the equilibrium dissociation constant that was used to present the drug/target affinity. The identified targets associated with drug were measured by surface plasmon resonance (SPR) to define the KD.
# S. aureus = experiment: MIC, S. aureus; settings: Staphylococcus aureus
compound,measurement,setting,value
"CCCNC[C@]1(O)[C@H](C)O[C@@H](O[C@H]2[C@H](C)[C@@H](O[C@@H]3O[C@H](C)C[C@H](NC)[C@H]3O)[C@](C)(O)C[C@@H](C)CN[C@H](C)[C@@H](O)[C@](C)(O)[C@@H](CC)OC(=O)[C@@H]2C)C[C@@]1(C)OC [Example M9, (2R,3S,4R,5R,8R,10R,11R,12S,13S,14R)-2-ethyl-3,4,10-trihydroxy-13-(((2R,4R,5S,6S)-5-hydroxy-4-methoxy-4,6-dimethyl-5-((propylamino)methyl)-tetrahydro-2H-pyran-2-yl)oxy)-11-(((2S,3R,4S,6R)-3-hydroxy-6-methyl-4-(methylamino)tetrahydro-2H-pyran-2-yl)oxy)-3,5,8,10,12,14-hexamethyl-1-oxa-6-azacyclopentadecan-15-one]",clinical efficacy in P. multocida infection in mice,P. multocida 46572,clinically efficacious
same,lung lesions,"BRD; versus saline control 31%, p=0.023",20%
same,Mortality,"BRD; versus saline control 38.9%, p=0.025",13%
same,Interaction KD,TLR4,Indirect
same,MIC,S. aureus,64 µg/mL
